According to ChEMBL document CHEMBL5154916, “Multiparameter Optimization of Naphthyridine Derivatives as Selective α5-GABAA Receptor Negative Allosteric Modulators” (J Med Chem, 2022):
In brackets after ≈: the same amount, converted by molar mass. Activity calls are given as the source filed them. The rule behind the calls is not given here.

What was measured:
[1] = Thermodynamic solubility of the compound at pH 5; assay type: physicochemical; conditions: buffer, read-out: Therm_solubility
[2] = Free plasma concentration in subchronic PCP-induced cognitive impairment associated schizophrenia Wistar rat model at 10 mg/kg, po measured at 1.5 hr post dose by HPLC-MS/MS analysis; assay type: ADME, organism-based; conditions: in vivo
[3] = Ratio of drug level in brain to plasma in Wistar rat at 1 mg/kg, iv by HPLC-MS/MS analysis; assay type: ADME, organism-based; conditions: brain and plasma, read-out: BPR
[4] = Ratio of drug level in brain to plasma in Wistar rat at 1 mg/kg, po or 1 mg/kg, iv by HPLC-MS/MS analysis; assay type: ADME, organism-based; conditions: brain and plasma, read-out: BPR
[5] = AUC (0 to infinity) in Wistar rat total plasma at 1 mg/kg, po by HPLC-MS/MS analysis; assay type: ADME, organism-based; design: time infinity, dose 1 mg/kg, route po
[6] = Apparent permeability in human Caco-2 cells at 1 uM by HPLC-UV analysis; assay type: ADME, cell-based
[7] = Metabolic stability in Wistar rat liver microsomes assessed as intrinsic clearance at 2.5 uM; assay type: ADME, Microsome; conditions: read-out: CLH
[8] = […] in po dosed PTZ-induced seizure mouse model assessed as NOAEL by seizure test; assay type: organism-based; conditions: in vivo
[9] = Bioavailability in male dog at 10 mg/kg, po or 3 mg/kg, iv by HPLC-MS/MS analysis; assay type: ADME, organism-based, Canis lupus familiaris; conditions: in vivo
[10] = molecular target: T1, Cytochrome P450 1A2 (Homo sapiens, UniProt P05177); assay: Inhibition of CYP1A2 (unknown origin); assay type: ADME
T1 sequence (P05177 whole entry): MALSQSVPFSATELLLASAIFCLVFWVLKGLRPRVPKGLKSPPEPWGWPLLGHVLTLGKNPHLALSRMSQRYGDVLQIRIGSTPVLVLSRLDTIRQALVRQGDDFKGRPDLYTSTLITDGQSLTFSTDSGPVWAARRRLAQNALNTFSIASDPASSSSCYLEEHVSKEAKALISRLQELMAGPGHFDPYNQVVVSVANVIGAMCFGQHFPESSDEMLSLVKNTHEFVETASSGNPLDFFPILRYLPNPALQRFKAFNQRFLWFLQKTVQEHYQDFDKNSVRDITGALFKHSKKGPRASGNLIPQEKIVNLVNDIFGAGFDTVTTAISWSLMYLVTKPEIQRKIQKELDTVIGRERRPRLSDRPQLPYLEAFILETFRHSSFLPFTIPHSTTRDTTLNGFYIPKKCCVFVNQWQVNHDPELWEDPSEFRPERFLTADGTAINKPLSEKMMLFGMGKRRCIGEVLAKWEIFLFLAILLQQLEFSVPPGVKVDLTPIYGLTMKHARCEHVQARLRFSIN

[11] = molecular target: T2, GABA-A receptor; alpha-1/beta-3/gamma-2 (Homo sapiens) (UniProt P14867+P18507+P28472); assay: Negative allosteric modulation activity at human recombinant alpha1beta3gamma2 GABAA receptor stably expressed in HEK293 cells assessed as modulation at alpha1 subunit at 10 uM by Patch clamp method; assay type: cell-based; conditions: filed as negative allosteric modulator
[12] = AUC (0 to infinity) in Wistar rat total plasma at 1 mg/kg, iv by HPLC-MS/MS analysis; assay type: ADME, organism-based; design: time infinity, dose 1 mg/kg, route iv
[13] = Metabolic stability in human hepatocyte assessed as intrinsic clearance measured per 10^6 cells; assay type: ADME, cell-based; conditions: hepatocytes, read-out: CLH
[14] = molecular target: Voltage-gated inwardly rectifying potassium channel KCNH2 (Homo sapiens, UniProt Q12809); assay: Inhibition of hERG expressed in CHO cells stably at -80 mV holding potential by automated patch clamp method; assay type: toxicity, cell-based
Chain of Voltage-gated inwardly rectifying potassium channel KCNH2 (Q12809 whole entry): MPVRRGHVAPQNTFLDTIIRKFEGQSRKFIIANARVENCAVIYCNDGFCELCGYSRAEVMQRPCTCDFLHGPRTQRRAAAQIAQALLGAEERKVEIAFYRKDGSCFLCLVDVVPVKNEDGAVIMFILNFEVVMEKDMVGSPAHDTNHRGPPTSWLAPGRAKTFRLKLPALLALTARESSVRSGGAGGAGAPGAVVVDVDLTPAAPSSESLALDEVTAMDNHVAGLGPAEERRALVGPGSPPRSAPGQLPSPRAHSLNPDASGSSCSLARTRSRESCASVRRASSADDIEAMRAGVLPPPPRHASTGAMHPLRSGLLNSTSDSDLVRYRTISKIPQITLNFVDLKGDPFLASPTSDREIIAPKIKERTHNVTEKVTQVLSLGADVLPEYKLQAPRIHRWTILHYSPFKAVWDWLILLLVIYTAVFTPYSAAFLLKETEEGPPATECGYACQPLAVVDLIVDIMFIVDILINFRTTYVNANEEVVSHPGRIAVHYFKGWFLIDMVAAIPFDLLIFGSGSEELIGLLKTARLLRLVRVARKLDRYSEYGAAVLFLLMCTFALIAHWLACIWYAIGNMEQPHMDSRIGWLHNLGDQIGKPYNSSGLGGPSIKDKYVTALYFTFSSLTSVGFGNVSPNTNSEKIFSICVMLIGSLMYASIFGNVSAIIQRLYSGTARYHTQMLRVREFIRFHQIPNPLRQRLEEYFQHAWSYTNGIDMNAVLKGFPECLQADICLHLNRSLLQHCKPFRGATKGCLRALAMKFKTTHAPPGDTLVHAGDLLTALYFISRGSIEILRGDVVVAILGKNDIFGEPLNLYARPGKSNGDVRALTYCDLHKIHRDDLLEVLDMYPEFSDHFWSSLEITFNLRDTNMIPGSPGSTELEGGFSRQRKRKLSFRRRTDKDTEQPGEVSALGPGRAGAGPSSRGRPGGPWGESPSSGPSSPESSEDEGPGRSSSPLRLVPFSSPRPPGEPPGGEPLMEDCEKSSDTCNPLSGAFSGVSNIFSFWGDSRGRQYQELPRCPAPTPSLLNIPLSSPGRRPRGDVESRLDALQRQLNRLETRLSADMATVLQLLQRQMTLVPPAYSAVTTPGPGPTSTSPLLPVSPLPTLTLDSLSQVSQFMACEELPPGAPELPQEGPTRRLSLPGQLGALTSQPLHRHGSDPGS

[15] = molecular target: Cytochrome P450 3A4 (Homo sapiens, UniProt P08684); assay: Inhibition of CYP3A4 (unknown origin); assay type: ADME
Chain of Cytochrome P450 3A4 (P08684 whole entry): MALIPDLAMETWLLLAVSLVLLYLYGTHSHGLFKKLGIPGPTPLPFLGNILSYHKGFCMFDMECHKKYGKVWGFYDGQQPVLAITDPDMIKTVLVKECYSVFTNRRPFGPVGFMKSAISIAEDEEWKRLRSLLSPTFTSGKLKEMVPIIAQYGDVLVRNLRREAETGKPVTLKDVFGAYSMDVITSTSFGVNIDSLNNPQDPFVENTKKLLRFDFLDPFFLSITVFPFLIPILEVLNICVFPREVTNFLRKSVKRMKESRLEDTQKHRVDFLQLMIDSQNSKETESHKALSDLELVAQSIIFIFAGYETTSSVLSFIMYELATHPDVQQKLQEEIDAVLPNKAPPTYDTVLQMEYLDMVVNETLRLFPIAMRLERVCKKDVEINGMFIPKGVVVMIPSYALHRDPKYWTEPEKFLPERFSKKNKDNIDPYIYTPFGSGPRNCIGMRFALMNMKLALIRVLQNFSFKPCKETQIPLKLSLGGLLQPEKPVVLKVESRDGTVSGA

[16] = system: Rattus norvegicus; assay: Pro-cognitive activity in neonatal PCP-impaired social recognition Wistar rat model assessed as time spent in recognition of new juveniles at 10 mg/kg, po administered 30 min before acquisition by social recognition test; assay type: functional, organism-based
[17] = molecular target: T2, GABA-A receptor; alpha-1/beta-3/gamma-2 (Homo sapiens); assay: Negative allosteric modulation activity at human recombinant alpha1beta3gamma2 GABAA receptor stably expressed in HEK293 cells assessed as modulation at alpha5 subunit by Patch clamp method; assay type: cell-based; conditions: filed as negative allosteric modulator
[18] = molecular target: T3, Cytochrome P450 2C8 (Homo sapiens, UniProt P10632); assay: Inhibition of CYP2C8 (unknown origin); assay type: ADME
T3 sequence (P10632 whole entry): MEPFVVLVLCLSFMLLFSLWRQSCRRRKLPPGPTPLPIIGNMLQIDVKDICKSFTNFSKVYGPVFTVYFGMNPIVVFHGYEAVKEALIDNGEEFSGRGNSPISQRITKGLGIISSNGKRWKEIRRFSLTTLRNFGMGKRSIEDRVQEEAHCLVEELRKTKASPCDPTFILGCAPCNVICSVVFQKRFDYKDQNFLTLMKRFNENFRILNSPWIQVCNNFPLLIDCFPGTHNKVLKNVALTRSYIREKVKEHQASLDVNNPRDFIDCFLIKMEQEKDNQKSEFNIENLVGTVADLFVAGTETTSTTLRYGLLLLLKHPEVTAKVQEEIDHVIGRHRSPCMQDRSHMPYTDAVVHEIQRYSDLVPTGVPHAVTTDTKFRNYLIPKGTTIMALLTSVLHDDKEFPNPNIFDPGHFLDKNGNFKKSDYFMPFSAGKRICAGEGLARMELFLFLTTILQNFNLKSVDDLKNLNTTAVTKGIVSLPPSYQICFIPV

[19] = Passive permeability in human Caco-2 cells assessed as permeability damage ratio at 10 uM by HPLC-UV analysis; assay type: ADME, cell-based; conditions: caco-2, 10 µM
[20] = Metabolic stability in dog hepatocyte assessed as intrinsic clearance measured per 10^6 cells; assay type: ADME, cell-based, Canis lupus familiaris; conditions: hepatocytes, read-out: CLH
[21] = Half life in Wistar rat total plasma at 1 mg/kg, po by HPLC-MS/MS analysis; assay type: ADME, organism-based
[22] = system: Rattus norvegicus; assay: Pro-cognitive activity in po dosed subchronic PCP-induced cognitive impairment associated schizophrenia Wistar rat model assessed as reversal of PCP-induced cognitive deficit administered 30 mins prior to T1 phase by NOR test; assay type: functional; conditions: 0.5 h, read-out: MED
[23] = Tmax in Wistar rat total plasma at 1 mg/kg, po by HPLC-MS/MS analysis; assay type: ADME, organism-based
[24] = […] in po dosed Wistar rat assessed as NED by Irwin test; assay type: organism-based; conditions: in vivo, read-out: ED
[25] = system: Rattus norvegicus; assay: Pro-cognitive activity in neonatal PCP-impaired social recognition Wistar rat model assessed as time spent in recognition of new juveniles at 3 mg/kg, po administered 30 min before acquisition by social recognition test; assay type: functional, organism-based
[26] = Plasma protein binding in human; assay type: ADME, cell-free; conditions: read-out: PPB (converted)
[27] = Volume of distribution in Wistar rat plasma at 1 mg/kg, iv by HPLC-MS/MS analysis; assay type: ADME, organism-based
[28] = Bioavailability in female dog at 10 mg/kg, po or 3 mg/kg, iv by HPLC-MS/MS analysis; assay type: ADME, organism-based, Canis lupus familiaris; conditions: in vivo
[29] = Apparent permeability in human Caco2 cells assessed as permeability damage ratio at 1 uM by HPLC-UV analysis; assay type: ADME, cell-based; conditions: caco-2, 1 µM
[30] = Cmax in Wistar rat total plasma at 1 mg/kg, po by HPLC-MS/MS analysis; assay type: ADME, organism-based; design: dose 1 mg/kg, route po
[31] = Plasma protein binding in guinea pig; assay type: ADME, cell-free, Cavia porcellus; conditions: read-out: PPB (converted)
[32] = Cardiovascular toxicity in po dosed guinea pig assessed as NOAEL; assay type: organism-based, Cavia porcellus; conditions: in vivo

solubility thermodynamic [1]: 142 µM (≈ 65.2 µg/mL)
Cp(f) [2]: 6.9 nM
Kp [3]: 0.54
Kp [4]: 0.54
AUC(0-inf) [5]: 146 ng·h/mL
Papp at 1 µM [6]: 43 ×10⁻⁶ cm/s
microsomal CLint at 2.5 µM [7]: 29 µL/min/mg
bioavailability [9]: 12.6%
IC50 [10]: > 50 µM
Activity [11]: -2%
AUC(0-inf) [12]: 407 ng·h/mL
hepatocyte CLint [13]: 3 µL/min/1e6 cells
IC50 [15]: > 50 µM
Activity [17]: -41%
IC50 [18]: > 50 µM
hepatocyte CLint [20]: 2 µL/min/1e6 cells
half-life [21]: 70.2 min
Tmax [23]: 30 min
fraction unbound [26]: 0.014
Vd [27]: 1.9 L/kg
bioavailability [28]: 6.7%
Cmax [30]: 115 ng/mL
fraction unbound [31]: 0.023
Structure (SMILES): Cc1onc(-c2ccc(F)cc2)c1COc1ccc2c(n1)CCN(C(=O)CS(C)(=O)=O)C2
NOAEL [8]: ≥ 30 mg/kg
IC50 [14]: 6.2 µM
Activity [16]: Active
Ratio [19]: 29
minimal effective dose [22]: 3 mg/kg
NOAEL [24]: ≥ 300 mg/kg
Activity [25]: Active
Ratio [29]: 0.93
NOAEL [32]: ≥ 100 mg/kg
